Key:
[1] = target: T1, γ-humulene synthase (SEQ ID No:24) (Abies grandis, UniProt O64405); test: Kinetic parameters, metal ion requirement and substrate specificity of recombinant γ-humulene synthase; format: biochemical; details: for monoterpene product formed from geranyl diphosphate: GLC-MS; for Km: read-out: Km value for divalent metal ion
T1 construct: For further subcloning of the amplified, full-length cDNA into the pSBETa vector for high-level expression, the pGAG5 insert was amplified; made in house; host or cells: E. coli XL1-Blue/pGAG5 or E. coli BL21(DE3)/pSBAG5
T1 sequence (O64405 1-593): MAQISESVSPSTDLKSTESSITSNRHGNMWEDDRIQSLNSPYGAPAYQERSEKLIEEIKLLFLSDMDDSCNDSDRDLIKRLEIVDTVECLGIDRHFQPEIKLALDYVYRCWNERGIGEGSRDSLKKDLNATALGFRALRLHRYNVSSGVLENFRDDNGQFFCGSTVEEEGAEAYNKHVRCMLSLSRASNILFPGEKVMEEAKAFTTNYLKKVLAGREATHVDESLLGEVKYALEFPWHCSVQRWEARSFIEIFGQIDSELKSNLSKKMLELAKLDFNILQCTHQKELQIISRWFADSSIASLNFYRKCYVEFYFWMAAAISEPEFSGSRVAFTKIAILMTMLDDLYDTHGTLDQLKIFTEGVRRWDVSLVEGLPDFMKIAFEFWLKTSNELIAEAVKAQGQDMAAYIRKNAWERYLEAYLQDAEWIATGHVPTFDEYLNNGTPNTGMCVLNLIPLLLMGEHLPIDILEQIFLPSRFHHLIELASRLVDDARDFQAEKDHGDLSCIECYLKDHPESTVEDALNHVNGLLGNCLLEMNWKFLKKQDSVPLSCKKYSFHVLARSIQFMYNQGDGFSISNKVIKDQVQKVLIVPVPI
Protocol: (§1) The assay for recombinant sesquiterpene synthase (cyclase) activity was performed in 1 ml of buffer (extraction buffer without MnCl2 or the polymeric adsorbents) containing 3.5 μM [1-^3H]farnesyl diphosphate and the total protein extracted from a 5 ml bacterial culture to produce 10^5-10^6 dpm of product in 2 h at 31° C. The incubation mixture was overlaid with 1 ml pentane to trap volatile products. After incubation, the reaction mixture was extracted with pentane (3×1 ml) and the combined extract was passed through a MgSO4-silica gel column to provide the terpene hydrocarbon fractions as before. The columns were subsequently eluted with 3×1 ml of ether to collect any oxygenated products, and an aliquot of each fraction was taken for liquid scintillation counting to determine conversion rate. The monoterpene synthase and diterpene synthase activity assays were similarly performed as described in detail elsewhere (LaFever, R. E., et al., (1994) Arch. Biochem. Biophys. 313, 139-149; Bohlmann, J., et al., (1997) J. Biol. Chem. 272, 21784-21792; Lewinsohn, E., et al., (1991) Plant Physiol. 96, 38-43).
(§2) The substrate specificity and other kinetic. parameters of γ-humulene synthase (SEQ ID No:24) and δ-selinene synthase (SEQ ID No:20) were investigated in order to confirm the identification and classification of these enzymes. […] Neither of these sesquiterpene synthases requires K^+ or other monovalent cation for activity.
(§3) Substrate specificity of δ-selinene synthase (SEQ ID No:20) and γ-humulene synthase (SEQ ID No:24) was evaluated by comparing farnesyl diphosphate (C15) to geranyl diphosphate (C10) and geranylgeranyl diphosphate (C20) at saturation as precursors of the respective terpene olefins. […] The identities of the monoterpene products produced by the sesquiterpene synthases were determined by GLC-MS and are set forth in FIG. 4.

[2] = target: T2, δ-selinene synthase (SEQ ID No:20) (Abies grandis, UniProt O64404); test: Kinetic parameters, metal ion requirement and substrate specificity of recombinant δ-selinene synthase; format: biochemical; details: for Km: read-out: Km value for divalent metal ion
T2 construct: made in house; host or cells: E. coli XL1-Blue/pGAG4 or E. coli BL21(DE3)/pSBAG4
T2 sequence (O64404 1-581): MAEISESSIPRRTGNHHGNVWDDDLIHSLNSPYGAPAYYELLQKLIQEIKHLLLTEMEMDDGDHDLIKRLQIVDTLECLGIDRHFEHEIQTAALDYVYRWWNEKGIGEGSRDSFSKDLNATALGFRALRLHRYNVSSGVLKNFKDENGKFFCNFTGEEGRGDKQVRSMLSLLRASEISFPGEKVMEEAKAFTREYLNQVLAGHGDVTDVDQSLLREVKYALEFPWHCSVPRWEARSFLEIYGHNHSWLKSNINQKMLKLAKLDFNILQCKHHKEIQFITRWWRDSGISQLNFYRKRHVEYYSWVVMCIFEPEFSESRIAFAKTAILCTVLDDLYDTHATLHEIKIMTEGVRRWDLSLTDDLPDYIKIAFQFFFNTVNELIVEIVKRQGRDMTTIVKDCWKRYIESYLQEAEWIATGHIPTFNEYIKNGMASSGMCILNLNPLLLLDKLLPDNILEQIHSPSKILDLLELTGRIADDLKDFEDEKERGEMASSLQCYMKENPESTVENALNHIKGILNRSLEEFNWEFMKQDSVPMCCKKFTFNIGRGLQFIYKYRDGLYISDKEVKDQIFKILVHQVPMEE
Protocol: as §1, §2, §3

[3] = test system: partially purified inducible sesquiterpene synthases; test: Sesquiterpene synthase assay with partially purified extract of wounded grand fir stems; format: biochemical, Abies grandis; details: partially purified inducible sesquiterpene synthases from wounded stems; read-out: Km value for [1-3H]farnesyl diphosphate
Source text: Grand fir saplings in active growth were used as the enzyme source for determination of constitutive terpenoid synthases and of terpenoid synthases which had been induced in wounded stems by a standard wounding protocol (Funk, C., et al., (1994) Plant Physiol. 106, 999-1005). Stems from control saplings and saplings eight days after wounding (usually ten saplings) were harvested by removing the top and lateral growth, and cutting at about 5 cm from the base. The stems were chopped into 5-7 cm segments, frozen in liquid N2 and, following removal of any needles, were ground to a powder in a liquid N2-chilled No. 1 Wiley mill. The frozen powder was added to chilled extraction buffer (5 ml/g fresh tissue weight) consisting of 10 mM dibasic potassium phosphate and 1.8 mM monobasic potassium phosphate (pH 7.3), 140 mM NaCl, 20 mM β-mercaptoethanol, 10 mM MgCl2, 5 mM MnCl2, 10% (v/v) glycerol and 1% (w/v) each of polyvinylpyrrolidone (Mr 40,000) and polyvinylpolypyrrolidone. […]
Liquid scintillation counting was performed in 10 ml toluene:ethanol (7:3, v/v) containing 0.4% (w/v) Omnifluor (DuPont-NEN) at a ^3H counting efficiency of 43%. Protein concentrations were determined by the method of Bradford (Bradford, M. M. (1976) Anal. Biochem. 72, 248-254) using the Bio-Rad reagent and bovine serum albumin as standard. […]

insect larvae = details: present in paper made from trees of the genus Abies; cited from earlier work
[4] = substrate: CC(C)=CCC/C(C)=C/CC/C(C)=C/CO[P@@](=O)(O)OP(=O)(O)O; test: Kinetic parameters, metal ion requirement and substrate specificity of recombinant δ-selinene synthase; format: biochemical, Abies grandis; details: other: δ-selinene synthase; estimated; 31.0 °C
Protocol: as §1, with “The monoterpene synthase and diterpene synthase activity assays were similarly performed as described in detail elsewhere (LaFever, R. E., et al., (1994) Arch. Biochem. Biophys. 313, 139-149; Bohlmann, J., et al., (1997) J. Biol. Chem. 272, 21784-21792; Lewinsohn, E., et al., (1991) Plant Physiol. 96, 38-43).” left out
as §3

[5] = substrate: CC(C)=CCC/C(C)=C/CC/C(C)=C/CO[P@@](=O)(O)OP(=O)(O)O; test: Kinetic parameters, metal ion requirement and substrate specificity of recombinant γ-humulene synthase; format: biochemical, Abies grandis; details: other: γ-humulene synthase; estimated; 31.0 °C
Protocol: as §1, with “The monoterpene synthase and diterpene synthase activity assays were similarly performed as described in detail elsewhere (LaFever, R. E., et al., (1994) Arch. Biochem. Biophys. 313, 139-149; Bohlmann, J., et al., (1997) J. Biol. Chem. 272, 21784-21792; Lewinsohn, E., et al., (1991) Plant Physiol. 96, 38-43).” left out
as §3

With `C=C1C2CCC(C2)C1(C)C` (centres unmarked) [camphene] the “monoterpene product formed from geranyl diphosphate” value (from here on “monoterpene product formed”) [1] was “detectable amounts” and the “monoterpene product formed” value ([2]; GLC-MS) was “does not produce”.

`CC(C)=CCC/C(C)=C/CC/C(C)=C/CO[P@@](=O)(O)OP(=O)(O)O` [[1-^3H]farnesyl diphosphate] gave a Km [3] of about 0.4 µM.

With `C=C/C(C)=C/CC=C(C)C` [E-ocimene] the “monoterpene product formed” value [1] was “not detectable” and the “contribution to monoterpene products formed from geranyl diphosphate” value ([2]; GLC-MS) was 22.4%.

With `C=C(C)[C@H]1CC=C(C)CC1` [Limonene] the “monoterpene product formed” value [1] was “principal monoterpene product” and the “monoterpene product formed” value ([2]; GLC-MS) was “principal monoterpene product”.

In the case of `COC(=O)C1=CC[C@H]([C@H](C)CC(=O)CC(C)C)CC1` [Juvabione], the “effect on maturation of insect larvae” value (insect larvae) is given as “inhibits maturation of insect larvae”.

In the case of `[Mg+2]` [Mg^2+], the “metal ion utilization in the cyclization reaction” value [1] is reported as “comparable velocities”, the Km [1] is reported as about 125 µM and the Km [2] is reported as about 125 µM.

In the case of `[Mn+2]` [Mn^2+], the “metal ion utilization in the cyclization reaction” value [1] is reported as “comparable velocities”, the Km [1] is reported as about 25 µM and the “maximum rate relative to that with Mg2+ at saturation” value [2] is reported as “less than 10%”. The Km [2] was about 25 µM.

B1: δ-selinene synthase (SEQ ID No:20) (Abies grandis) (protein)
chain: T2 sequence (O64404 1-581)
notes: made in house; host or cells: E. coli XL1-Blue/pGAG4 or E. coli BL21(DE3)/pSBAG4
Work on B1 yielded a Km [4] of 1.5 µM.

B2: γ-humulene synthase (SEQ ID No:24) (Abies grandis) (protein)
chain: T1 sequence (O64405 1-593)
notes: For further subcloning of the amplified, full-length cDNA into the pSBETa vector for high-level expression, the pGAG5 insert was amplified; made in house; host or cells: E. coli XL1-Blue/pGAG5 or E. coli BL21(DE3)/pSBAG5
For B2, the Km [5] was 4.5 µM.
